Results published in patent publication US10611740B2, “Aryl dihydro-2H-benzo[b][1,4]oxazine sulfonamide and related compounds for use as agonists of RORγ and the treatment of disease” (Lycera Corporation, priority 2015, dated 2020).

Experiments:
RORγ-LBD = biological target: T1, RORγ-LBD (Homo sapiens, UniProt P51449); experiment: RORγ-Ligand Binding Domain (LBD) TR-FRET Assay; format: biochemical;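 as to TR-FRET Assay Max Response: 665/615 nm ratio relative to signal without ursolic acid or compound set at 100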
T1 construct: made in house; host or cells: SF9 cells (baculovirus)
T1 sequence (P51449 269-508 limits assumed): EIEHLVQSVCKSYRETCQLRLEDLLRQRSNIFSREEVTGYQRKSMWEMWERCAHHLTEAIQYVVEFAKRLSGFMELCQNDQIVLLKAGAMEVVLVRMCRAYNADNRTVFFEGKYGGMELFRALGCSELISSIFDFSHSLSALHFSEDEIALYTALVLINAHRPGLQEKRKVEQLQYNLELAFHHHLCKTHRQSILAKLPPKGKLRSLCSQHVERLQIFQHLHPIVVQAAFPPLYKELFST
Summary of the method: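 SF9 lysate containing His-RORγ-LBD, ~3 nM final; coactivator peptide biotin-SRC1 LXXLL, 200 nM final; ursolic acid 2 μM final; DMSO 1% final; Tris pH 7.0 buffer with KCl, EDTA, DTT, BSA. TR-FRET format.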

Gal4-RORγ-LBD = biological target: T2, Gal4-RORγ-LBD (Homo sapiens, UniProt P51449); experiment: Gal4-RORγ Luciferase Reporter Assay in HEK-293T Cells; format: cell-based; conditions: HEK-293 cells
T2 construct: expressed in transfected cells; host or cells: HEK-293 cells (pcDNA3.1neo plasmid)
T2 sequence (P51449 269-508 limits assumed): T1 sequence (P51449 269-508 limits assumed)
Summary of the method: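 In transfected HEK-293 cells (Gal4-RORγ-LBD, Gal4-luciferase), test agents with 2 μM ursolic acid were incubated overnight at 37 °C before luminescent detection. Values are relative to the ursolic-acid-free, compound-free signal (100).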

[1] = luciferase reporter, with 2 μM ursolic acid

Compound	EC50 (RORγ-LBD) [nM]	TR-FRET Assay Max Response (RORγ-LBD)	EC50 (Gal4-RORγ-LBD; [1]) [nM]	Gal4-RORγ Assay Max Response (Gal4-RORγ-LBD; [1])	EC50 (Gal4-RORγ-LBD; 2 μM ursolic acid) [nM]	Gal4-RORγ Assay Max Response (Gal4-RORγ-LBD; 2 μM ursolic acid)
CC(C)(CC[C@H]1CN(S(=O)(=O)c2cccc(C(F)(F)F)c2)c2cc(-c3cc(F)ccc3F)ccc2O1)C(=O)O [Compound 32A, (S)-4-(6-(2,5-difluorophenyl)-4-((3-(trifluoromethyl)phenyl)-sulfonyl)-3,4-dihydro-2H-benzo[b][1,4]oxazin-2-yl)-2,2-dimethylbutanoic acid]	< 500	**** (The symbol “****” indicates a value greater than 200)	< 500	** (The symbol “**” indicates a value in the range of greater than 90 to 150)	–	–
CC(C)(C[C@H]1CN(S(=O)(=O)c2cccc(C(F)(F)F)c2)c2cc(-c3cccc(C(F)(F)F)c3Cl)ccc2O1)C(=O)O [Compound 32AA, (S)-3-(6-(2-chloro-3-(trifluoromethyl)phenyl)-4-((3-(trifluoromethyl)phenyl)sulfonyl)-3,4-dihydro-2H-benzo[b][1,4]-oxazin-2-yl)-2,2-dimethyl-propanoic acid]	< 500	**** (The symbol “****” indicates a value greater than 200)	–	–	< 500	** (The symbol “**” indicates a value in the range of greater than 90 to 150)
CC(C)(C[C@H]1CN(S(=O)(=O)c2cccc(C(F)(F)F)c2)c2cc(-c3cc(Cl)cc(C(F)(F)F)c3)ccc2O1)C(=O)O [Compound 32AB, (S)-3-(6-(3-chloro-5-(trifluoromethyl)phenyl)-4-((3-(trifluoromethyl)phenyl)sulfonyl)-3,4-dihydro-2H-benzo[b][1,4]oxazin-2-yl)-2,2-dimethylpropanoic acid]	< 500	*** (The symbol “***” indicates a value in the range of greater than 150 to 200)	–	–	< 500	** (The symbol “**” indicates a value in the range of greater than 90 to 150)
CC(C)(C[C@H]1CN(S(=O)(=O)c2cccc(C(F)(F)F)c2)c2cc(-c3cccc4c3OC(F)(F)O4)ccc2O1)C(=O)O [Compound 32AC, (S)-3-(6-(2,2-difluorobenzo[d]-[1,3]dioxol-4-yl)-4-((3-(trifluoro-methyl)phenyl)sulfonyl)-3,4-dihydro-2H-benzo[b][1,4]oxazin-2-yl)-2,2-dimethylpropanoic acid]	< 500	*** (The symbol “***” indicates a value in the range of greater than 150 to 200)	–	–	< 500	** (The symbol “**” indicates a value in the range of greater than 90 to 150)
CC(C)(C[C@H]1CN(S(=O)(=O)c2cccc(C(F)(F)F)c2)c2cc(-c3cc(C(F)(F)F)ccc3Cl)ccc2O1)C(=O)O [Compound 32AD, (S)-3-(6-(2-chloro-5-(trifluoromethyl)phenyl)-4-((3-(trifluoromethyl)phenyl)sulfonyl)-3,4-dihydro-2H-benzo[b][1,4]oxazin-2-yl)-2,2-dimethylpropanoic acid]	< 500	*** (The symbol “***” indicates a value in the range of greater than 150 to 200)	–	–	< 500	* (The symbol “*” indicates a value in the range of 25 to 90)
CC(=O)c1ccc(F)c(-c2ccc3c(c2)N(S(=O)(=O)c2cccc(C(F)(F)F)c2)C[C@H](CC(C)(C)C(=O)O)O3)c1 [Compound 32AE, (S)-3-(6-(5-acetyl-2-fluoro-phenyl)-4-((3-(trifluoromethyl)-phenyl)sulfonyl)-3,4-dihydro-2H-benzo[b][1,4]oxazin-2-yl)-2,2-dimethylpropanoic acid]	< 500	*** (The symbol “***” indicates a value in the range of greater than 150 to 200)	–	–	< 500	* (The symbol “*” indicates a value in the range of 25 to 90)
CC(C)(C[C@H]1CN(S(=O)(=O)c2cccc(C(F)(F)F)c2)c2cc(-c3ccccc3C#N)ccc2O1)C(=O)O [Compound 32AF, (S)-3-(6-(2-cyanophenyl)-4-((3-(trifluoromethyl)phenyl)sulfonyl)-3,4-dihydro-2H-benzo[b][1,4]-oxazin-2-yl)-2,2-dimethyl-propanoic acid]	< 500	*** (The symbol “***” indicates a value in the range of greater than 150 to 200)	–	–	500 to 5000	** (The symbol “**” indicates a value in the range of greater than 90 to 150)
COc1cc(F)cc(-c2ccc3c(c2)N(S(=O)(=O)c2cccc(C(F)(F)F)c2)C[C@H](CC(C)(C)C(=O)O)O3)c1 [Compound 32AG, (S)-3-(6-(3-fluoro-5-methoxy-phenyl)-4-((3-(trifluoromethyl)-phenyl)sulfonyl)-3,4-dihydro-2H-benzo[b][1,4]oxazin-2-yl)-2,2-dimethylpropanoic acid]	< 500	**** (The symbol “****” indicates a value greater than 200)	–	–	< 500	** (The symbol “**” indicates a value in the range of greater than 90 to 150)
COc1cc(Cl)cc(-c2ccc3c(c2)N(S(=O)(=O)c2cccc(C(F)(F)F)c2)C[C@H](CC(C)(C)C(=O)O)O3)c1 [Compound 32AH, (S)-3-(6-(3-chloro-5-methoxy-phenyl)-4-((3-(trifluoromethyl)-phenyl)sulfonyl)-3,4-dihydro-2H-benzo[b][1,4]oxazin-2-yl)-2,2-dimethylpropanoic acid]	< 500	*** (The symbol “***” indicates a value in the range of greater than 150 to 200)	–	–	< 500	** (The symbol “**” indicates a value in the range of greater than 90 to 150)
CC(C)(C[C@H]1CN(S(=O)(=O)c2cccc(C(F)(F)F)c2)c2cc(-c3cc(F)cc(Cl)c3F)ccc2O1)C(=O)O [Compound 32AI, (S)-3-(6-(3-chloro-2,5-difluoro-phenyl)-4-((3-(trifluoromethyl)-phenyl)sulfonyl)-3,4-dihydro-2H-benzo[b][1,4]oxazin-2-yl)-2,2-dimethylpropanoic acid]	< 500	*** (The symbol “***” indicates a value in the range of greater than 150 to 200)	–	–	< 500	** (The symbol “**” indicates a value in the range of greater than 90 to 150)
COc1cc(S(=O)(=O)N2C[C@H](CCC(C)(C)C(=O)O)Oc3ccc(-c4cccc(C(F)(F)F)n4)cc32)ccc1F [Compound 32AJ, (S)-4-(4-((4-fluoro-3-methoxy-phenyl)sulfonyl)-6-(6-(trifluoro-methyl)pyridin-2-yl)-3,4-dihydro-2H-benzo[b][1,4]oxazin-2-yl)-2,2-dimethylbutanoic acid]	< 500	** (The symbol “**” indicates a value in the range of greater than 90 to 150)	–	–	< 500	** (The symbol “**” indicates a value in the range of greater than 90 to 150)
CC(C)(C[C@H]1CN(S(=O)(=O)c2cccc(C(F)(F)F)c2)c2cc(-c3cccc(C(F)F)n3)ccc2O1)C(=O)O [Compound 32AK, (S)-3-(6-(6-(difluoromethyl)-pyridin-2-yl)-4-((3-(trifluoro-methyl)phenyl)sulfonyl)-3,4-dihydro-2H-benzo[b][1,4]oxazin-2-yl)-2,2-dimethylpropanoic acid]	< 500	** (The symbol “**” indicates a value in the range of greater than 90 to 150)	–	–	< 500	* (The symbol “*” indicates a value in the range of 25 to 90)
